The subject of one series is HBV DNA. In words: In vitro anti-HBV activity: replication of HBV DNA in 2.2.15 cells (dot hybridization). It counts as cell-based, Hepatitis B virus (HBV). Particulars: for IC50: Hepatitis B virus, read-out: DNA replication IC50; for DNA replication SI: selectivity index. The protocol: (§1) All compounds were evaluated for their anti-HBV activities, namely the ability to inhibit the replication of HBV DNA and the production of HBsAg and HBeAg in HBV-infected 2.2.15 cells.
(§2) The samples were dissolved in DMSO for appropriate concentrations, and then each was diluted 3-fold with culture medium. The 2.2.15 cells were planted into 96-well culture plates. […] The culture supernatants and 2.2.15 cells were collected respectively on the 8th plant day. The secretion concentrations of HBsAg and HBeAg in the culture supernatants were measured by RIA on SPRIA Kit for Detection of HBsAg and HBeAg (Beijing North Institute of Biological Technology), and the replication of HBV DNA was measured by dot hybridization with a^32PdCTP (FuRui Biological Technology Ltd., China).

The test system of another series is 2.2.15 cells. In words: Cytotoxicity (TC50) in 2.2.15 cells. It counts as cell-based. As to the method: as §1, §2
The target in a further series is T1, HIV-1 protease (Human immunodeficiency virus type 1 group M subtype B, UniProt P04585).
T1 construct: The genetically engineered target enzyme (HIV-1 protease, preserved at −85° C.)
As to the kind of experiment: Anti-HIV-1 protease activity (fluorescence labeled substrate). Particulars: for inhibition ratio at 0.5 ug/ml: sample concentration 0.5 ug/ml; for inhibition ratio at 2.0 ug/ml: sample concentration 2.0 ug/ml; for inhibition ratio at 10 ug/ml: sample concentration 10 ug/ml; for inhibition ratio at 50 ug/ml: sample concentration 50 ug/ml; for inhibition ratio at 250 ug/ml: sample concentration 250 ug/ml. It counts as biochemical. As to the method:
HIV-1 protease can cut the fluorescence labeled substrate under optimal condition and reaction system, so the activity of enzyme is determined by the fluorescence in the product of enzymatic reaction. The samples are added into the reaction system to observe the inhibitive effect on the enzyme.
The samples and the reference drug Indinavir ([…].) were dissolved in DMSO or redistilled water for appropriate concentration. Each was diluted 5-fold and then added into the buffer containing fluorescence labeled substrate (MP Co.). The genetically engineered target enzyme (HIV-1 protease, preserved at −85° C.) was added to the buffer and incubated under the optimal reaction condition. The fluorescence was determined by FLUO star Galaxy fluorometer.

In brackets after ≈: the same amount, converted by molar mass.

The text below walks through data of patent US7960427B2, “5-hydroxyindole-3-carboxylate derivatives and uses thereof” (priority 2004, dated 2011).

By IC50 is commonly meant the concentration at which inhibition is half-maximal. Regarding `CCOC(=O)c1c(CS(=O)(=O)Cc2ccc(F)cc2)n(C)c2cc(Br)c(O)c(CN3CCCC3)c12` [Example 84, Ethyl 6-bromo-5-hydroxy-1-methyl-4-(1-pyrrolidinylmethyl)-2-[(4-fluorobenzyl)sulfonylmethyl]-1H-indole-3-carboxylate], in the series on HBV DNA, the IC50 turned out to be 0.58 µg/mL (≈ 1.02 µM) and the “DNA replication SI” value was 42.57. The same molecule returned a TC50 in the series on 2.2.15 cells of 24.69 µg/mL (≈ 43.5 µM).
In the case of `CCOC(=O)c1c(CS(=O)(=O)Cc2ccccc2F)n(C2CC2)c2cc(Br)c(O)c(Cn3ccnc3C)c12` [Example 165, Ethyl 6-bromo-1-cyclopropyl-5-hydroxy-4-[(2-methyl-1-imidazolyl)methyl]-2-[(2-fluorobenzyl)sulfonylmethyl]-1H-indole-3-carboxylate], in the series on HBV DNA, the IC50 was 3.14 µg/mL (≈ 5.19 µM) and the “DNA replication SI” value is given as 2.47. The molecule further showed a TC50 in the series with 2.2.15 cells of 7.76 µg/mL (≈ 12.8 µM).
For the molecule `CCOC(=O)c1c(CS(=O)(=O)Cc2ccc(F)cc2)n(C)c2cc(Br)c(O)c(Cn3ccnc3C)c12` [Example 185, Ethyl 6-bromo-5-hydroxy-1-methyl-4-[(2-methyl-1-imidazolyl)methyl]-2-[(4-fluorobenzyl)sulfonylmethyl]-1H-indole-3-carboxylate], in the series on HBV DNA, the IC50 came out at 1.3 µg/mL (≈ 2.25 µM) and the “DNA replication SI” value is reported as 9.5. In the series on 2.2.15 cells, this molecule yielded a TC50 of 12.35 µg/mL (≈ 21.3 µM).
Turning to `CCOC(=O)c1c(C[S+]([O-])c2ccc(F)c(F)c2)n(C)c2cc(Br)c(O)c(Cn3ccnc3C)c12.Cl` (stereo not drawn) [Example 133, Ethyl 6-bromo-5-hydroxy-1-methyl-4-[(2-methyl-1-imidazolyl)methyl]-2-[(3,4-difluorophenyl)sulfinylmethyl]-1H-indole-3-carboxylate hydrochloride], in the series with HBV DNA, the IC50 is 6.37 µg/mL and the “DNA replication SI” value turned out to be 6.28. Further, the TC50 in the series on 2.2.15 cells worked out at 40.0 µg/mL.
On the same counts, the results for `CCOC(=O)c1c(C[S+]([O-])c2cccc(C)c2)n(C)c2cc(Br)c(O)c(Cn3ccnc3C)c12` (stereo not drawn) [Example 134, Ethyl 6-bromo-5-hydroxy-1-methyl-4-[(2-methyl-1-imidazolyl)methyl]-2-[(3-methylphenyl)sulfinylmethyl]-1H-indole-3-carboxylate] are 3.8 µg/mL (≈ 6.98 µM), 19.1 and 53.42 µg/mL (≈ 98.1 µM).
On the same counts, the results for `CCOC(=O)c1c(C[S+]([O-])c2ccccc2OC)n(C)c2cc(Br)c(O)c(Cn3ccnc3C)c12.Cl` (stereo not drawn) [Example 135, Ethyl 6-bromo-5-hydroxy-1-methyl-4-[(2-methyl-1-imidazolyl)methyl]-2-[(2-methoxyphenyl)sulfinylmethyl]-1H-indole-3-carboxylate hydrochloride] are 2.4 µg/mL, 22.3 and 53.42 µg/mL.
On the same counts, the results for `CCOC(=O)c1c(C[S+]([O-])Cc2ccc(F)cc2)n(C)c2cc(Br)c(O)c(CN3CCOCC3)c12.Cl` (stereo not drawn) [Example 64, Ethyl 6-bromo-5-hydroxy-1-methyl-4-(morpholinomethyl)-2-[(4-fluorobenzyl)sulfinylmethyl]-1H-indole-3-carboxylate hydrochloride] are 0.76 µg/mL, 32.48 and 24.69 µg/mL.
Consider `CCOC(=O)c1c(C[S+]([O-])c2ccccc2)n(C)c2cc(Br)c(O)c(Cn3cncn3)c12` (stereo not drawn) [Example 146, Ethyl 6-bromo-5-hydroxy-1-methyl-4-[(1H-1,2,4-triazol-1-yl)methyl]-2-(phenylsulfinylmethyl)-1H-indole-3-carboxylate], for which, in the series on HBV DNA, the half-inhibitory concentration (IC50) was 13.1 µg/mL (≈ 25.3 µM) and the “DNA replication SI” value amounted to 3.06. In the series on 2.2.15 cells, this molecule came in with a TC50 of 40.0 µg/mL (≈ 77.3 µM).
On the same counts, the results for `CCOC(=O)c1c(C[S+]([O-])Cc2ccccc2F)n(C2CC2)c2cc(Br)c(O)c(Cn3ccnc3C)c12` (stereo not drawn) [Example 183, Ethyl 6-bromo-1-cyclopropyl-5-hydroxy-4-[(2-methyl-1-imidazolyl)methyl]-2-[(2-fluorobenzyl)sulfinylmethyl]-1H-indole-3-carboxylate] are 3.45 µg/mL (≈ 5.86 µM), 10.74 and 37.04 µg/mL (≈ 62.9 µM).
On the same counts, the results for `CCOC(=O)c1c(CS(=O)(=O)c2ccc(C)cc2)n(C)c2ccc(O)c(Cn3ccnc3)c12` [Example 164, Ethyl 5-hydroxy-4-[(1-imidazolyl)methyl]-1-methyl-2-[(4-methylphenyl)sulfonylmethyl]-1H-indole-3-carboxylate] are 2 µg/mL (≈ 4.28 µM), 8.9 and 17.7 µg/mL (≈ 37.9 µM).
Take `CCOC(=O)c1c(CS(=O)(=O)Cc2ccco2)n(C2CC2)c2cc(Br)c(O)c(Cn3ccnc3)c12` [Example 162, Ethyl 6-bromo-1-cyclopropyl-5-hydroxy-4-[(1-imidazolyl)methyl]-2-[(2-furylmethyl)sulfonylmethyl]-1H-indole-3-carboxylate]: in the series with HBV DNA, the IC50 was found to be 51.7 µg/mL (≈ 92 µM) and the “DNA replication SI” value is given as 2.48. This molecule also displayed a TC50 in the series with 2.2.15 cells of 128.30 µg/mL (≈ 228 µM).
On the same counts, the results for `CCOC(=O)c1c(C[S+]([O-])c2ccccc2OC)n(C)c2cc(Br)c(O)c(CNC(=N)N)c12.Cl` (stereo not drawn) [Example 151, Ethyl 6-bromo-4-(guanidinylmethyl)-5-hydroxy-1-methyl-2-[(2-methoxyphenyl)-sulfinylmethyl]-1H-indole-3-carboxylate hydrochloride] are 1.8 µg/mL, 35.6 and 64.15 µg/mL.
On the same counts, the results for `CCOC(=O)c1c(C[S+]([O-])Cc2ccc(F)cc2)n(C)c2cc(Br)c(O)c(CN3CCCCC3)c12` (stereo not drawn) [Example 86, Ethyl 6-bromo-5-hydroxy-1-methyl-4-(piperidinomethyl)-2-[(4-fluorobenzyl)sulfinylmethyl]-1H-indole-3-carboxylate] are 0.64 µg/mL (≈ 1.13 µM), 11.14 and 7.13 µg/mL (≈ 12.6 µM).
Consider `CCOC(=O)c1c(CS(=O)(=O)Cc2ccco2)n(C2CC2)c2ccc(O)c(CN3CCCC3)c12` [Example 85], for which, in the series on HBV DNA, the IC50 worked out at 1.52 µg/mL (≈ 3.12 µM) and the “DNA replication SI” value worked out at 9.38. In the series on 2.2.15 cells, this molecule showed a TC50 of 14.26 µg/mL (≈ 29.3 µM).
On the same counts, the results for `CCOC(=O)c1c(CS(=O)(=O)c2ccccc2)n(C)c2cc(Br)c(O)c(Cn3ccnc3C)c12` [Example 166, Ethyl 6-bromo-5-hydroxy-1-methyl-4-[(2-methyl-1-imidazolyl)methyl]-2-(phenylsulfonylmethyl)-1H-indole-3-carboxylate] are 7.53 µg/mL (≈ 13.8 µM), 7.09 and 53.42 µg/mL (≈ 97.8 µM).
In the case of `CCOC(=O)c1c(C[S+]([O-])Cc2ccc(F)cc2)n(C)c2cc(Br)c(O)c(CN(C)C)c12` (stereo not drawn) [Example 80, Ethyl 6-bromo-4-[(dimethylamino)methyl]-5-hydroxy-1-methyl-2-[(4-fluorobenzyl)sulfinylmethyl]-1H-indole-3-carboxylate], in the series on HBV DNA, the concentration for half-maximal inhibition (IC50) came to 0.27 µg/mL (≈ 0.514 µM) and the “DNA replication SI” value was found to be 3.37. The TC50 in the series with 2.2.15 cells is under 0.91 µg/mL.
On the same counts, the results for `CCOC(=O)c1c(CS(=O)(=O)Cc2ccc(F)cc2)n(C)c2cc(Br)c(O)c(Cn3ccnc3)c12` [Example 163, Ethyl 6-bromo-5-hydroxy-4-[(1-imidazolyl)methyl]-1-methyl-2-[(4-fluorobenzyl)sulfonylmethyl]-1H-indole-3-carboxylate] are 0.68 µg/mL (≈ 1.2 µM), 31.45 and 21.39 µg/mL (≈ 37.9 µM).
Turning to `CCOC(=O)c1c(C[S+]([O-])c2ccccc2F)n(C)c2cc(Br)c(O)c(Cn3ccnc3)c12` (stereo not drawn) [Example 125, Ethyl 6-bromo-5-hydroxy-4-[(1-imidazolyl)methyl]-1-methyl-2-[(2-fluorophenyl)sulfinylmethyl]-1H-indole-3-carboxylate], in the series with HBV DNA, the IC50 came to 8.76 µg/mL (≈ 16.4 µM) and the “DNA replication SI” value is 5.49. The same molecule registered a TC50 in the series with 2.2.15 cells of 48.1 µg/mL (≈ 90 µM).
Take `CCOC(=O)c1c(CS(=O)(=O)c2ccc(F)c(F)c2)n(C2CC2)c2cc(Br)c(O)c(Cn3ccnc3)c12` [Example 160, Ethyl 6-bromo-1-cyclopropyl-5-hydroxy-4-[(1-imidazolyl)methyl]-2-[(3,4-difluorophenyl)sulfonylmethyl]-1H-indole-3-carboxylate]: at HIV-1 protease, the IC50 is 21.3 µM, the “inhibition ratio at 0.5 ug/ml” value was found to be 6.1, the “inhibition ratio at 2.0 ug/ml” value was 11.7 and the “inhibition ratio at 10 ug/ml” value is listed as 29.1. In addition, at HIV-1 protease, the “inhibition ratio at 50 ug/ml” value was determined as 71.8 and the “inhibition ratio at 250 ug/ml” value was 97.8.
Regarding `CCOC(=O)c1c(C[S+]([O-])c2ccccc2)n(C)c2cc(Br)c(O)c(Cn3ccnc3C)c12` (stereo not drawn) [Example 131, Ethyl 6-bromo-5-hydroxy-1-methyl-4-[(2-methyl-1-imidazolyl)methyl]-2-(phenylsulfinylmethyl)-1H-indole-3-carboxylate], on HIV-1 protease, it took 294 µM to reach half-maximal inhibition (IC50), the “inhibition ratio at 0.5 ug/ml” value is 4.6, the “inhibition ratio at 2.0 ug/ml” value was 14.6 and the “inhibition ratio at 10 ug/ml” value is 7.1. Also, on HIV-1 protease, the “inhibition ratio at 50 ug/ml” value is 7.7 and the “inhibition ratio at 250 ug/ml” value amounted to 55.1.
